Laboratory results as given in patent US10294230B2, “3,3-difluoropiperidine carbamate heterocyclic compounds as NR2B NMDA receptor antagonists” (Rugen Holdings (Cayman) Limited, priority 2015, dated 2019).

What was measured:
NR2B = NR2B (Homo sapiens (Human), UniProt Q05586+Q13224); details: cited from earlier work
[1] = system: immobility in forced swim test; assay: Forced Swim Test (FST) in rats; format: in vivo
From the text: (§1) The forced swim test (FST) also known at the behavioural despair test was used to evaluate antidepressant activity (Porsolt et al., 1977 Arch. Int. Pharmacodyn. 229: 327-336, Porsolt et al., 1977, Eur. J. Pharmacol. 47:379-391). Mice or rats that are forced to swim in a situation from which they cannot escape, rapidly become immobile. Drugs with antidepressant activity, such as imipramine, reduce the amount of time spent in the immobile state. Therefore, the amount of immobility time during a test conducted after drug administration represents a useful indicator of antidepressant activity (Lucki et al 2001 Psychopharmacology 155:315-322; Porsolt et al., 1977, Nature 266:730-732).
(§2) Test compound E1-8.2 was administered as the free base.
Male Wistar rats weighing 197-251 g were used for the rat test. Rats were evaluated according to a two-session procedure with a swimming session of 15 minutes on the first day of the experiment (Session 1) followed 24 hours later by a 5-minute swimming test (Session 2). […] Rats were placed in the water 24 h later for 5 minutes (Session 2) and the duration of immobility was measured.
Animals were observed by a blinded observer. […] The amount of time each animal spent in the immobile state (and the latency to the first bout of immobility) was recorded and used for statistical analysis of compound effect. […]

[2] = system: immobility in forced swim test; assay: Forced Swim Test (FST) in mice; format: in vivo
From the text: as §1, §2
Mice were evaluated in a single swimming test session of 6 minutes. Mice were placed in a transparent plastic cylinder 24 cm high with a diameter of 13 cm containing 10 cm of water with ambient temperature control generally from 22±2° C. Mice were placed in the water for 6 minutes and the duration of immobility during the last 4 minutes was measured.
Animals were observed by a blinded observer. The observer judged the animal to be immobile when it ceased all activity (struggling, swimming, jumping etc.) and floated passively atop the water. The amount of time each animal spent in the immobile state (and the latency to the first bout of immobility) was recorded and used for statistical analysis of compound effect. Group differences were evaluated by student's t-test (reference substance) or one-way ANOVA followed by post-hoc Dunnett's test (test substances). […]
Male mice (strain NLMN) weighing 25-35 g were used for testing. […] The mice were videotaped for 6 minutes, and the last 4 minutes of video were analyzed by a blinded observer off-line. […] The amount of time each animal spent in the immobile state was recorded and used for statistical analysis of compound effect. Group differences were evaluated by student's t-test or one-way ANOVA followed by post-hoc Dunnett's test. […]

NR2B, sequence (Q13224 27-1484, species assumed, other chains not shown): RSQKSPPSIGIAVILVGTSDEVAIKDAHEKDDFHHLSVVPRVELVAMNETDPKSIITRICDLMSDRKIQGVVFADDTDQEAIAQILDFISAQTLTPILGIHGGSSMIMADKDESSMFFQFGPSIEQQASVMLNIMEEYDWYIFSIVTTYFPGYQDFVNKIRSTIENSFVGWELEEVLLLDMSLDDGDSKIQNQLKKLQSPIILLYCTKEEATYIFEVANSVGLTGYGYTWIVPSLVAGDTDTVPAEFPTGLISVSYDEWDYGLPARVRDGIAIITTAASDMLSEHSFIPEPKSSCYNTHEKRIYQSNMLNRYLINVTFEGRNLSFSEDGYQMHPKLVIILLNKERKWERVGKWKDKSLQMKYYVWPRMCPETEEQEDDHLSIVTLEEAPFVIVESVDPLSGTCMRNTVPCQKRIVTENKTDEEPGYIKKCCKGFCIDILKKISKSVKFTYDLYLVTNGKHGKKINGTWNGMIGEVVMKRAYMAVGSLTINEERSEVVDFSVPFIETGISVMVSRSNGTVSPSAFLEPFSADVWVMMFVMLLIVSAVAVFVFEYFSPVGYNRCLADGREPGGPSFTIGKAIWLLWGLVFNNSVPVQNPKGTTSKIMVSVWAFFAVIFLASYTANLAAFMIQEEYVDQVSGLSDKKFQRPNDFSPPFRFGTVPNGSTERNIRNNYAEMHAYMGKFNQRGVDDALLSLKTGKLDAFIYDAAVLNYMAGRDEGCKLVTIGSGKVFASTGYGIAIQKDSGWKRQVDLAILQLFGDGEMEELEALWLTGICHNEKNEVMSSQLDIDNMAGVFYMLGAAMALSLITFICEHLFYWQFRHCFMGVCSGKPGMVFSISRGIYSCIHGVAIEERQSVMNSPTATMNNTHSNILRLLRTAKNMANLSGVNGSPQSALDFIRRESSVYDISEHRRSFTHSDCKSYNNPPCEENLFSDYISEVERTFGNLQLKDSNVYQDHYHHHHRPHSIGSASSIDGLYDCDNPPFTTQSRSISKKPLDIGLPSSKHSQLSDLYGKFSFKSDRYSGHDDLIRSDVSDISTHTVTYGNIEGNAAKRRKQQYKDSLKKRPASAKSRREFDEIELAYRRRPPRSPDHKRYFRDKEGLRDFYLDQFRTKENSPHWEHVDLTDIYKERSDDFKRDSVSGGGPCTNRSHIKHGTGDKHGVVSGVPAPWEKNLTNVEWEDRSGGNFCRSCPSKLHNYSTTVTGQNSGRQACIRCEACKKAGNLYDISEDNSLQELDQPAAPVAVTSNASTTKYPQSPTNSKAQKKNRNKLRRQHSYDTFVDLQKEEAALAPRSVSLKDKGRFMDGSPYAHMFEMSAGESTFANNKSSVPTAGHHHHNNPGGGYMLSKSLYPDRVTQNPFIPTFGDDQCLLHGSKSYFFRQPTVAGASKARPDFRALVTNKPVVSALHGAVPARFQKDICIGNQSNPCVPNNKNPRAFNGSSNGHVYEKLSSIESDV

Row | SMILES | potency against NR2B (NR2B) | immobility time, antidepressant activity ([1]; 32 mpk i.p. 3 times: 24 h, 4 h and 30 min before Session 2) | immobility time, antidepressant activity ([1]; 64 mpk p.o. 3 times: 24 h, 4 h and 60 min before Session 2) | immobility time, antidepressant activity ([2]; 32 mpk i.p. once 30 min before the test) | immobility time, antidepressant activity ([2]; 64 mpk p.o. once 60 min before the test) | immobility time, antidepressant activity ([2]; 128 mpk p.o. once 60 minutes before the test on Day 7)
1 | Cc1ccc(COC(=O)N2CCC(CNc3ncccn3)C(F)C2)cc1 (single isomer, unassigned) [3R,4S enantiomer] | 25.5 nM |  |  |  |  | 
2 | CN(C)CCCN1c2ccccc2CCc2ccccc21 [imipramine] |  | expected antidepressant activity | expected antidepressant activity | expected antidepressant activity | expected antidepressant activity | expected antidepressant activity
